Measured values reported in US9351983B2, “Use of glycerophosphoinositols for the treatment of septic shock” (CONSIGLIO NAZIONALE DELLE RICERCHE, priority 2012, dated 2016).

Experiments:
IL-1β = test: ELISA of IL-1β in medium of LPS-stimulated monocytes; type: cell-based, human; details: 300 μM
Method: FIG. 5—The inhibitory effects of GroPIns are also evident at the protein expression level. Purified monocytes (4×10^3 cells/sample) were pre-incubated for 20 min at 37° C. in the absence and presence of 300 μM GroPIns, and then for a further 5 h and 24 h without or with 0.1 μg/ml LPS from E. coli. At the end of this incubation, the levels of TNFα, IL-1β and TxB-2 in the medium were assessed by ELISA. In monocytes alone, the protein concentrations were under the assay detection limits at both the times. The data are representative of three independent experiments performed with cells from different donors. Exposure of monocytes to LPS induced a time-dependent increase in the […] levels of all of the cytokines analysed.
Cellular levels of TNFα, IL-1β and TxB-2 were quantified by enzyme-linked immunosorbent assay (ELISA). Conditioned medium from monocytes was sedimented by centrifugation at 300×g at room temperature for 10 min to eliminate cellular debris. Then, the supernatant was recovered and the concentrations of TNFα, IL-1β and TxB-2 were assessed by ELISA, as specified by the manufacturers (Amersham Pharmacia Biotech (NJ, USA).

human monocytes = test: In vitro model of human innate immunity inflammation: morphology and viability by light microscopy; type: cell-based; details: 300 μM, added 20 minutes before LPS, IL-10 and TGF-β; images at 2 h, 14 h, 24 h, 48 h; one donor, preliminary
Source text: FIG. 13—The in vitro model of human innate immunity inflammation. Schematic representation and timing of the in vitro stimulation of human monocytes. In order to mimic the microenvironmental changes and the timing of human host response that covers the different phases of the inflammatory reaction, from recruitment and onset, to development and resolution of inflammation, cultured cells have been exposed to sequential changes of microenvironmental conditions. Monocytes in culture were exposed to chemokine C-C motif ligand 2 (CCL2), responsible for monocytes recruitment to sites of injury through endothelial cells adhesion, lipopolysaccharide (LPS), as a pathogen insult, tumor necrosis factor α (TNFα) and interferon γ (IFN-γ) as inducers of acute phase of inflammation and finally with interleukin 10 (IL-10) and transforming growth factor β (TGF-β), responsible for the resolution of inflammation. In detail: at time zero freshly isolated human monocytes were exposed to CCL2 (20 ng/ml) at 37° C. […]
Freshly isolated human monocytes, which have been used for all the above-mentioned experiments, were purified from buffy coat prepared at I.N.T. Pascale in Naples. […] The viability of cells was determined by trypan blue staining. The purity of isolated cells (98%) was microscopically detected after centrifugation and staining with modified Wright-Giemsa dye (Diff Quick, Medion Diagnostic AG). […]

O=P(O)(OCC(O)CO)OC1C(O)C(O)C(O)C(O)C1O (stereo not drawn) [GroPIns, glycerophosphoinositol] was tested, and the “level of IL-1β in the medium” value (IL-1β; 0.1 μg/ml LPS for 5 h) was “very small effects”, the “level of IL-1β in the medium” value (IL-1β; 0.1 μg/ml LPS for 24 h) was “significantly reduced” and the “cellular viability (light microscopy)” value (human monocytes) was “cellular viability increased”.
